Test results reported in US10912820B2, “Use of immunomodulatory kits for immunotherapeutic treatment of patients with myeloid leukemias” (Modiblast Pharma GmbH, priority 2014, dated 2021).

Assay: In vivo treatment of healthy PVG.1N rats with single substances (safety data)
Conditions: i.v.; for (severe) side effects (breathing, sleep, food intake, mobility, skin, weight): Picibanil 0.35 μg/rat, PGE2 1 μg/rat, PGE1 1 μg/rat; for Flow cytometric analyzes on blood cells (Teff, Treg, CD4, CD8, NK, NKT cells) compared to placebo: data not shown
Method: Safety data were performed on a total of 4 rats of the healthy strain PVG.1N: they were given the clinically intended final concentrations of the single substances i.v. in the following doses: Picibanil (0.35 μg/rat), PGE2 (1 μg/rat), PGE1 (1 μg/rat) and placebo (PBS).

Structure (SMILES): CCCCC[C@H](O)/C=C/[C@H]1[C@H](O)CC(=O)[C@@H]1CCCCCCC(=O)O [PGE1, Alprostadil]
- (severe) side effects (breathing, sleep, food intake, mobility, skin, weight): no (severe) side effects
- Flow cytometric analyzes on blood cells (Teff, Treg, CD4, CD8, NK, NKT cells) compared to placebo: no difference compared to the placebo controls

Structure (SMILES): CCCCC[C@H](O)/C=C/[C@H]1[C@H](O)CC(=O)[C@@H]1C/C=C\CCCC(=O)O [PGE2, Prostaglandin E2]
- (severe) side effects (breathing, sleep, food intake, mobility, skin, weight): no (severe) side effects
- Flow cytometric analyzes on blood cells (Teff, Treg, CD4, CD8, NK, NKT cells) compared to placebo: no difference compared to the placebo controls
